Assay results taken from PubChem BioAssay (NCI).
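The compound was tested at five concentrations on cells cultured in 96-well plates, with a 48-hour exposure period. GI50 marks 50% less growth. At the TGI there is no net growth.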

Legend:
Experiment in all cases: DTP human tumour cell line panel, 48 h; in the data active means GI50 below about 0.43 µM; inactive means the rest
TK-10 renal = system: TK-10 renal
IGROV1 ovarian = system: IGROV1 ovarian
SF-539 CNS = system: SF-539 CNS
SR leukemia = system: SR leukemia
MDA-MB-231 breast = system: MDA-MB-231 breast
UACC-62 melanoma = system: UACC-62 melanoma
RPMI-8226 leukemia = system: RPMI-8226 leukemia
CCRF-CEM leukemia = system: CCRF-CEM leukemia
BT-549 breast = system: BT-549 breast
HCT-15 colon = system: HCT-15 colon
OVCAR-5 ovarian = system: OVCAR-5 ovarian
OVCAR-4 ovarian = system: OVCAR-4 ovarian
MCF7 breast = system: MCF7 breast
NCI-H226 lung = system: NCI-H226 lung
HT29 colon = system: HT29 colon
786-0 renal = system: 786-0 renal
OVCAR-8 ovarian = system: OVCAR-8 ovarian
MALME-3M melanoma = system: MALME-3M melanoma
T-47D breast = system: T-47D breast
SK-MEL-5 melanoma = system: SK-MEL-5 melanoma
SF-268 CNS = system: SF-268 CNS
U251 CNS = system: U251 CNS
HCT-116 colon = system: HCT-116 colon
RXF 393 renal = system: RXF 393 renal
SNB-19 CNS = system: SNB-19 CNS
HCC-2998 colon = system: HCC-2998 colon
HOP-62 NSCLC = system: HOP-62 NSCLC
LOX IMVI melanoma = system: LOX IMVI melanoma
COLO 205 colon = system: COLO 205 colon
CAKI-1 renal = system: CAKI-1 renal
K-562 leukemia = system: K-562 leukemia
SNB-75 CNS = system: SNB-75 CNS
MOLT-4 leukemia = system: MOLT-4 leukemia
NCI/ADR-RES ovarian = system: NCI/ADR-RES ovarian
SK-MEL-28 melanoma = system: SK-MEL-28 melanoma
NCI-H23 lung = system: NCI-H23 lung
NCI-H460 lung = system: NCI-H460 lung
SK-OV-3 ovarian = system: SK-OV-3 ovarian
ACHN renal = system: ACHN renal
SW-620 colon = system: SW-620 colon
A498 renal = system: A498 renal
OVCAR-3 ovarian = system: OVCAR-3 ovarian
HL-60(TB) leukemia = system: HL-60(TB) leukemia
MDA-N = system: MDA-N
UACC-257 melanoma = system: UACC-257 melanoma
UO-31 renal = system: UO-31 renal
MDA-MB-435 = system: MDA-MB-435
KM12 colon = system: KM12 colon
DU-145 prostate = system: DU-145 prostate
EKVX NSCLC = system: EKVX NSCLC
SN12C renal = system: SN12C renal
A549 NSCLC = system: A549 NSCLC
SF-295 CNS = system: SF-295 CNS
M14 melanoma = system: M14 melanoma
HOP-92 NSCLC = system: HOP-92 NSCLC
HS 578T breast = system: HS 578T breast
SK-MEL-2 melanoma = system: SK-MEL-2 melanoma
PC-3 prostate = system: PC-3 prostate
NCI-H522 lung = system: NCI-H522 lung

COc1ccc(-c2nc(Nc3ccccc3)sc2Cc2sc(Nc3ccccc3)nc2-c2ccc(OC)cc2)cc1
52 µM: TGI (HL-60(TB) leukemia)
> 100 µM: TGI (TK-10 renal) | TGI (IGROV1 ovarian) | TGI (SF-539 CNS) | TGI (SR leukemia) | TGI (MDA-MB-231 breast) | TGI (UACC-62 melanoma) | TGI (RPMI-8226 leukemia) | TGI (CCRF-CEM leukemia) | TGI (BT-549 breast) | TGI (HCT-15 colon) | TGI (OVCAR-5 ovarian) | TGI (OVCAR-4 ovarian) | TGI (MCF7 breast) | TGI (NCI-H226 lung) | TGI (HT29 colon) | TGI (786-0 renal) | TGI (OVCAR-8 ovarian) | TGI (MALME-3M melanoma) | TGI (T-47D breast) | TGI (SK-MEL-5 melanoma) | TGI (SF-268 CNS) | TGI (U251 CNS) | TGI (HCT-116 colon) | TGI (SNB-19 CNS) | TGI (HCC-2998 colon) | TGI (HOP-62 NSCLC) | TGI (LOX IMVI melanoma) | TGI (COLO 205 colon) | TGI (CAKI-1 renal) | TGI (K-562 leukemia) | TGI (SNB-75 CNS) | TGI (MOLT-4 leukemia) | TGI (NCI/ADR-RES ovarian) | TGI (SK-MEL-28 melanoma) | TGI (NCI-H23 lung) | TGI (NCI-H460 lung) | TGI (SK-OV-3 ovarian) | TGI (ACHN renal) | TGI (SW-620 colon) | TGI (A498 renal) | TGI (OVCAR-3 ovarian) | TGI (MDA-N) | TGI (UACC-257 melanoma) | TGI (UO-31 renal) | TGI (MDA-MB-435) | TGI (KM12 colon) | TGI (DU-145 prostate) | TGI (EKVX NSCLC) | TGI (SN12C renal) | TGI (A549 NSCLC)
26.8 µM: TGI (RXF 393 renal)

Cc1cc(-c2nc3c(F)cccc3s2)ccc1N
inactive: GI50 (IGROV1 ovarian) 22.7 µM | GI50 (OVCAR-5 ovarian) 1.68 µM | GI50 (OVCAR-4 ovarian) 20.9 µM | GI50 (NCI-H226 lung) 5.45 µM | GI50 (HCC-2998 colon) > 100 µM
31.5 µM: TGI (EKVX NSCLC)
63.9 µM: TGI (MOLT-4 leukemia)
> 100 µM: TGI (IGROV1 ovarian) | TGI (SR leukemia) | TGI (SF-295 CNS) | TGI (MDA-MB-231 breast) | TGI (M14 melanoma) | TGI (UACC-62 melanoma) | TGI (RPMI-8226 leukemia) | TGI (CCRF-CEM leukemia) | TGI (BT-549 breast) | TGI (HOP-92 NSCLC) | TGI (HCT-15 colon) | TGI (OVCAR-4 ovarian) | TGI (MCF7 breast) | TGI (NCI-H226 lung) | TGI (HT29 colon) | TGI (HS 578T breast) | TGI (786-0 renal) | TGI (OVCAR-8 ovarian) | TGI (MALME-3M melanoma) | TGI (SK-MEL-5 melanoma) | TGI (SF-268 CNS) | TGI (U251 CNS) | TGI (HCT-116 colon) | TGI (RXF 393 renal) | TGI (HCC-2998 colon) | TGI (HOP-62 NSCLC) | TGI (LOX IMVI melanoma) | TGI (SK-MEL-2 melanoma) | TGI (COLO 205 colon) | TGI (CAKI-1 renal) | TGI (K-562 leukemia) | TGI (SNB-75 CNS) | TGI (NCI/ADR-RES ovarian) | TGI (SK-MEL-28 melanoma) | TGI (NCI-H23 lung) | TGI (PC-3 prostate) | TGI (SK-OV-3 ovarian) | TGI (ACHN renal) | TGI (SW-620 colon) | TGI (A498 renal) | TGI (OVCAR-3 ovarian) | TGI (HL-60(TB) leukemia) | TGI (MDA-N) | TGI (UACC-257 melanoma) | TGI (NCI-H522 lung) | TGI (UO-31 renal) | TGI (MDA-MB-435) | TGI (KM12 colon) | TGI (DU-145 prostate) | TGI (SN12C renal) | TGI (A549 NSCLC)
76.2 µM: TGI (OVCAR-5 ovarian)

Cc1cc(O)c(/C=N/C(=S)Nc2ccc(S(N)(=O)=O)cc2)c(=O)o1
> 100 µM: TGI (TK-10 renal) | TGI (IGROV1 ovarian) | TGI (SF-539 CNS) | TGI (SF-295 CNS) | TGI (MDA-MB-231 breast) | TGI (M14 melanoma) | TGI (UACC-62 melanoma) | TGI (BT-549 breast) | TGI (HOP-92 NSCLC) | TGI (HCT-15 colon) | TGI (OVCAR-5 ovarian) | TGI (OVCAR-4 ovarian) | TGI (MCF7 breast) | TGI (NCI-H226 lung) | TGI (HT29 colon) | TGI (786-0 renal) | TGI (OVCAR-8 ovarian) | TGI (T-47D breast) | TGI (SK-MEL-5 melanoma) | TGI (SF-268 CNS) | TGI (U251 CNS) | TGI (HCT-116 colon) | TGI (RXF 393 renal) | TGI (SNB-19 CNS) | TGI (HCC-2998 colon) | TGI (HOP-62 NSCLC) | TGI (LOX IMVI melanoma) | TGI (SK-MEL-2 melanoma) | TGI (COLO 205 colon) | TGI (CAKI-1 renal) | TGI (SNB-75 CNS) | TGI (MOLT-4 leukemia) | TGI (NCI/ADR-RES ovarian) | TGI (SK-MEL-28 melanoma) | TGI (NCI-H23 lung) | TGI (NCI-H460 lung) | TGI (SK-OV-3 ovarian) | TGI (ACHN renal) | TGI (SW-620 colon) | TGI (A498 renal) | TGI (OVCAR-3 ovarian) | TGI (HL-60(TB) leukemia) | TGI (MDA-N) | TGI (UACC-257 melanoma) | TGI (UO-31 renal) | TGI (MDA-MB-435) | TGI (KM12 colon) | TGI (DU-145 prostate) | TGI (EKVX NSCLC) | TGI (SN12C renal) | TGI (A549 NSCLC)
